Test results: PubChem BioAssay AID248 (DTP/NCI, 2004)
Several values for one entry are separate records, joined by “and”; a condition that tells them apart may be missing. Identical values can stand only once. Toxic doses and inconclusive results are not listed. Rule as the data show it: active = T/C of 150% or more; inactive = T/C below 125%.

Tested on: L1210 leukemia ip in BDF1 mice, survival T/C
Assay: NCI In Vivo Anticancer Drug Screen. Data for tumor model L1210 Leukemia (intraperitoneal) in B6D2F1 (BDF1) mice
Conditions: endpoint: mean survival time, higher = longer survival
Outline: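 Ratio derived from survival: compound-dosed mice over vehicle-dosed mice, all bearing a transplantable tumor.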

[1] = dose: 50.0 mg/kg/injection, schedule: Q01DX001 (ip), vehicle: carboxymethylcellulose (CMC)
[2] = dose: 100.0 mg/kg/injection, schedule: Q01DX001 (ip), vehicle: carboxymethylcellulose (CMC)
[3] = dose: 200.0 mg/kg/injection, schedule: Q01DX001 (ip), vehicle: carboxymethylcellulose (CMC)
[4] = dose: 400.0 mg/kg/injection, schedule: Q01DX001 (ip), vehicle: carboxymethylcellulose (CMC)
[5] = dose: 50.0 mg/kg/injection, schedule: Q01DX009 (ip), vehicle: saline
[6] = dose: 100.0 mg/kg/injection, schedule: Q01DX009 (ip), vehicle: saline
[7] = dose: 200.0 mg/kg/injection, schedule: Q01DX009 (ip), vehicle: saline
[8] = dose: 100.0 mg/kg/injection, schedule: Q01DX009 (ip), vehicle: Klucel (hydroxypropylcellulose) (HPC)
[9] = dose: 100.0 mg/kg/injection, schedule: Q04DX002 (ip), vehicle: Klucel (hydroxypropylcellulose) (HPC)
[10] = dose: 100.0 mg/kg/injection, schedule: Q04DX003 (ip), vehicle: Klucel (hydroxypropylcellulose) (HPC)
[11] = dose: 200.0 mg/kg/injection, schedule: Q01DX009 (ip), vehicle: Klucel (hydroxypropylcellulose) (HPC)
[12] = dose: 200.0 mg/kg/injection, schedule: Q04DX002 (ip), vehicle: Klucel (hydroxypropylcellulose) (HPC)
[13] = dose: 200.0 mg/kg/injection, schedule: Q04DX003 (ip), vehicle: Klucel (hydroxypropylcellulose) (HPC)
[14] = dose: 400.0 mg/kg/injection, schedule: Q01DX009 (ip), vehicle: Klucel (hydroxypropylcellulose) (HPC)
[15] = dose: 400.0 mg/kg/injection, schedule: Q04DX002 (ip), vehicle: Klucel (hydroxypropylcellulose) (HPC)
[16] = dose: 100.0 mg/kg/injection, schedule: Q01DX001 (ip), vehicle: saline
[17] = dose: 200.0 mg/kg/injection, schedule: Q01DX001 (ip), vehicle: saline
[18] = dose: 400.0 mg/kg/injection, schedule: Q01DX001 (ip), vehicle: saline
[19] = dose: 100.0 mg/kg/injection, schedule: Q04DX003 (ip), vehicle: saline
[20] = dose: 200.0 mg/kg/injection, schedule: Q04DX003 (ip), vehicle: saline
[21] = dose: 400.0 mg/kg/injection, schedule: Q04DX003 (ip), vehicle: saline

Measured: T/C

CC(=O)Nc1cc(F)c2c(c1)Cc1cc(F)ccc1-2
inactive: [1] 102 % of control | [2] 98 % of control | [3] 93 % of control | [4] 93 % of control

CCCCCCCN1CCCC(OC(=O)N(C)C)C1 (stereo not drawn)
inactive: dose: 25.0 mg/kg/injection, schedule: Q04DX002 (ip), vehicle: saline 110 % of control | dose: 50.0 mg/kg/injection, schedule: Q04DX002 (ip), vehicle: saline 103 % of control | dose: 100.0 mg/kg/injection, schedule: Q04DX002 (ip), vehicle: saline 110 % of control and 89 % of control

CC12C=CC(O1)C1C(=O)OC(=O)C12 (stereo not drawn)
inactive: [5] 91 % of control | dose: 75.0 mg/kg/injection, schedule: Q01DX001 (ip), vehicle: other 96 % of control | [6] 100 % of control | dose: 150.0 mg/kg/injection, schedule: Q01DX001 (ip), vehicle: other 98 % of control | [7] 88 % of control

Nc1ccc(P(=O)(Nc2cccc(Cl)c2)Nc2cccc(Cl)c2)cc1
inactive: dose: 100.0 mg/kg/injection, schedule: Q04DX003 (ip), vehicle: acetone 108 % of control | dose: 200.0 mg/kg/injection, schedule: Q04DX003 (ip), vehicle: acetone 92 % of control | dose: 400.0 mg/kg/injection, schedule: Q04DX003 (ip), vehicle: acetone 92 % of control

OCc1ccccc1Cn1ccnc1
inactive: dose: 100.0 mg/kg/injection, schedule: Q01DX001 (ip), vehicle: Klucel (hydroxypropylcellulose) (HPC) 111 % of control | [8] 97 % of control and 105 % of control | [9] 102 % of control and 103 % of control | [10] 105 % of control | dose: 200.0 mg/kg/injection, schedule: Q01DX001 (ip), vehicle: Klucel (hydroxypropylcellulose) (HPC) 103 % of control | [11] 94 % of control and 87 % of control | [12] 97 % of control and 88 % of control | [13] 111 % of control | dose: 400.0 mg/kg/injection, schedule: Q01DX001 (ip), vehicle: Klucel (hydroxypropylcellulose) (HPC) 99 % of control | [14] 94 % of control and 96 % of control | [15] 97 % of control and 100 % of control | dose: 400.0 mg/kg/injection, schedule: Q04DX003 (ip), vehicle: Klucel (hydroxypropylcellulose) (HPC) 110 % of control

NC(=Nc1ccc(Cl)cc1)N/N=C/c1ccc(Cl)cc1
inactive: dose: 5.0 mg/kg/injection, schedule: Q01DX001 (ip), vehicle: saline 94 % of control | dose: 10.0 mg/kg/injection, schedule: Q01DX001 (ip), vehicle: saline 100 % of control | dose: 20.0 mg/kg/injection, schedule: Q01DX001 (ip), vehicle: saline 94 % of control | dose: 40.0 mg/kg/injection, schedule: Q01DX001 (ip), vehicle: saline 91 % of control | dose: 80.0 mg/kg/injection, schedule: Q01DX001 (ip), vehicle: saline 91 % of control | [16] 92 % of control | [17] 89 % of control | [18] 103 % of control

O=[N+]([O-])c1ccccc1N=Nc1c(O)[nH]c2c(Cl)cc(Cl)cc12
inactive: [16] 105 % of control

CCCCCCCCCCCCCCCCCC(=O)N1C(=O)c2ccccc2C1=O
inactive: dose: 100.0 mg/kg/injection, schedule: Q01DX001 (ip), vehicle: other 87 % of control | dose: 200.0 mg/kg/injection, schedule: Q01DX001 (ip), vehicle: other 88 % of control | dose: 400.0 mg/kg/injection, schedule: Q01DX001 (ip), vehicle: other 92 % of control

CCOC(=S)SCC(=O)CSC(=S)OCC
inactive: dose: 25.0 mg/kg/injection, schedule: Q04DX002 (ip), vehicle: Klucel (hydroxypropylcellulose) (HPC) 103 % of control | dose: 50.0 mg/kg/injection, schedule: Q04DX002 (ip), vehicle: Klucel (hydroxypropylcellulose) (HPC) 97 % of control | [9] 110 % of control

O=[N+]([O-])c1ccc(O)c(CNCCCNCc2cc([N+](=O)[O-])ccc2O)c1
inactive: [16] 102 % of control | [17] 98 % of control | [18] 102 % of control

CP1(=O)CCC(=O)C1 (stereo not drawn)
inactive: [19] 98 % of control | [20] 110 % of control | [21] 104 % of control

CCc1ccccc1NC(=O)Sc1ccccc1O
inactive: dose: 6.25 mg/kg/injection, schedule: Q01DX009 (ip), vehicle: saline with Tween-80 105 % of control | dose: 12.5 mg/kg/injection, schedule: Q01DX009 (ip), vehicle: saline with Tween-80 105 % of control | dose: 25.0 mg/kg/injection, schedule: Q01DX009 (ip), vehicle: saline with Tween-80 93 % of control and 102 % of control

CCOC(=O)/C(Cc1ccc2c(c1)OCO2)=N\O
inactive: [19] 96 % of control | [20] 97 % of control | [21] 103 % of control

CSc1ccc(NC(=O)Nc2cccc(C)c2C)cc1
inactive: [8] 92 % of control | [11] 95 % of control | [14] 103 % of control

OCC1OCC(O)C(O)C1O (stereo not drawn)
inactive: [5] 94 % of control | [6] 91 % of control | [7] 88 % of control

c1ccc(Nc2c3ccccc3nc3ccccc23)cc1
inactive: dose: 100.0 mg/kg/injection, schedule: Q04DX003 (ip), vehicle: other 115 % of control

COc1ccc(Cl)cc1/C=C/C=N/NC(=O)c1cccc(C)c1O
inactive: dose: 75.0 mg/kg/injection, schedule: Q01DX001 (ip), vehicle: carboxymethylcellulose (CMC) 86 % of control | dose: 150.0 mg/kg/injection, schedule: Q01DX001 (ip), vehicle: carboxymethylcellulose (CMC) 89 % of control | dose: 300.0 mg/kg/injection, schedule: Q01DX001 (ip), vehicle: carboxymethylcellulose (CMC) 86 % of control

O=C(CNC(=O)c1ccccc1)c1ccccc1
inactive: [9] 105 % of control | [12] 102 % of control | [15] 108 % of control

COc1ccccc1CCCOC(=O)c1ccc([N+](=O)[O-])cc1
inactive: dose: 100.0 mg/kg/injection, schedule: Q01DX001 (ip), vehicle: saline with Tween-80 100 % of control | dose: 200.0 mg/kg/injection, schedule: Q01DX001 (ip), vehicle: saline with Tween-80 95 % of control | dose: 400.0 mg/kg/injection, schedule: Q01DX001 (ip), vehicle: saline with Tween-80 89 % of control

O=C(/C=C\c1ccc([N+](=O)[O-])cc1)OCCCCOC(=O)/C=C/c1ccc([N+](=O)[O-])cc1
inactive: dose: 50.0 mg/kg/injection, schedule: Q01DX001 (ip), vehicle: saline 93 % of control | [16] 96 % of control | [17] 90 % of control | [18] 87 % of control

Clc1ccc(Cl)c(NNc2cc(Cl)ccc2Cl)c1
inactive: dose: 25.0 mg/kg/injection, schedule: Q01DX009 (ip), vehicle: Klucel (hydroxypropylcellulose) (HPC) 114 % of control | dose: 50.0 mg/kg/injection, schedule: Q01DX009 (ip), vehicle: Klucel (hydroxypropylcellulose) (HPC) 98 % of control | [8] 96 % of control and 92 % of control | [10] 98 % of control | [13] 101 % of control

O=S(=O)(Sc1ccc(N(CCCl)CCCl)cc1)c1ccc(N(CCCl)CCCl)cc1
inactive: [1] 109 % of control | [2] 100 % of control | [3] 117 % of control | [4] 109 % of control
